This note sets out measurements from ChEMBL document CHEMBL5346919, “Toward anthelmintic drug candidates for toxocariasis: Challenges and recent developments” (2023).

Common to all, as to assay type: functional
The test system of experiment [1] is Toxocara cati. As to the kind of experiment: Antiparasitic activity against Toxocara cati infected in cat assessed as worm burden reduction at 25 mg/kg,po measured after 3 days. Also noted: scale not given: the % may be the effect or the level left. As to conditions: time 3 day.
Experiment [2] relates to Toxocara cati. As to the kind of experiment: Antiparasitic activity against Toxocara cati infected in cat assessed as worm burden reduction at 50 mg/kg, po measured after 2 days. Also noted: scale not given: the % may be the effect or the level left. As to conditions: time 2 day.
Experiment [3] deals with Toxocara canis. The experiment is described as follows: Antiparasitic activity against Toxocara canis infected in dog assessed as egg burden reduction at 50 mg/kg,po measured after 3 days. Also noted: scale not given: the % may be the effect or the level left. The note with it: time 3 day.
Experiment [4] has as its system Toxocara canis. As to the kind of experiment: Antiparasitic activity against Toxocara canis assessed as larvicidal activity at 1100 uM measured after 48 hrs relative to control.
The test system of experiment [5] is Toxocara canis. As to the kind of experiment: Antiparasitic activity against Toxocara canis assessed as larvicidal activity at 192 uM measured after 48 hrs relative to control.
Experiment [6] deals with Toxocara canis. The experiment is described as follows: Antiparasitic activity against Toxocara canis assessed as relative mobility.
Experiment [7] relates to Toxocara canis. As to the kind of experiment: Antiparasitic activity against Toxocara canis j2 larvae assessed as relative mobility at 18 uM measured after 48 hrs.
Experiment [8] relates to Toxocara canis. The experiment is described as follows: Antiparasitic activity against Toxocara canis infected in mouse assessed as worm burden reduction in muscles at 350 mg/kg,sc administered twice a day relative to control. Also noted: scale not given: the % may be the effect or the level left.
The subject of experiment [9] is Toxocara canis. The experiment is described as follows: Antiparasitic activity against Toxocara canis infected in mouse assessed as worm burden reduction in brain at 25 mg/kg,po or sc administered twice a day for 5 days relative to control. Also noted: scale not given: the % may be the effect or the level left. As to conditions: time 5 day.
The test system of experiment [10] is Toxocara canis. As to the kind of experiment: Antiparasitic activity against Toxocara canis infected in mouse assessed as worm burden reduction in muscles at 25 mg/kg,sc administered twice a day for 5 days relative to control. Also noted: scale not given: the % may be the effect or the level left. The note with it: time 5 day.
Experiment [11] deals with Toxocara canis. The experiment is described as follows: Antiparasitic activity against Toxocara canis infected in mouse assessed as worm burden reduction in brain at 100 mg/kg,po administered twice a day for 5 days relative to control. On the set-up: scale not given: the % may be the effect or the level left. The note with it: time 5 day.
The test system of experiment [12] is Toxocara canis. The experiment is described as follows: Antiparasitic activity against Toxocara canis infected in mouse assessed as worm burden reduction in brain at 25 mg/kg,sc administered twice a day for 5 days relative to control. Also noted: scale not given: the % may be the effect or the level left. The note with it: time 5 day.
In experiment [13] the test system is Toxocara canis. The experiment is described as follows: Antiparasitic activity against Toxocara canis infected in mouse assessed as worm burden reduction in brain at 150 mg/kg,sc administered twice a day relative to control. Also noted: scale not given: the % may be the effect or the level left.
For experiment [14], the system named is Toxocara canis. As to the kind of experiment: Antiparasitic activity against Toxocara canis assessed as relative mobility at 1 to 10000 uM measured after 24 hrs by. As to conditions: dose 1-10000 µM, read-out: ED50 (the source's name).
Experiment [15] relates to Toxocara canis. As to the kind of experiment: Antiparasitic activity against Toxocara canis infected in mouse assessed as worm burden reduction in muscles at 25 mg/kg,po or sc administered twice a day for 5 days relative to control. Also noted: scale not given: the % may be the effect or the level left. As to conditions: time 5 day.
The subject of experiment [16] is Toxocara vitulorum. The experiment is described as follows: Antiparasitic activity against Toxocara vitulorum infected in assessed as decrease in number of larvae in liver at 40 mg/kg,po measured after 7 days. The note with it: 168 h, time 7 day.
In experiment [17] the test system is Toxocara vitulorum. The experiment is described as follows: Antiparasitic activity against Toxocara vitulorum infected in assessed as decrease in number of larvae in lung at 40 mg/kg,po measured after 7 days. The note with it: 168 h, time 7 day.

For the compound `O=C(Nc1ccc(N=C=S)cc1Cl)c1cc(Br)cc(Br)c1O`, the Activity in experiment [1], in experiment [2] and in experiment [3] was 100% throughout.
Consider `CC1(C)CCC2=C(O1)C1(CO1)C1=C(CCCC1)C2=O` (stereo not given), for which the Activity in experiment [4] came to 100%.
`C=CCOC1=CC(=O)c2ccccc2C12CO2` (stereo not given): the Activity in experiment [4] was determined as 100%.
On to `O=C1C(Cl)=C(Cl)C2(CO2)c2ccccc21` (stereo not given), for which, in experiment [4], the Activity is given as 100%.
Turning to `CC1(C)CCC2=C(O1)C1(CO1)c1ccccc1C2=O` (stereo not given), the Activity in [5] and in experiment [4] was 100% each time.
Turning to `CC1(C)CC2=C(O1)C1(CO1)c1ccccc1C2=O` (stereo not given), the Activity in experiment [4] came to 100%.
For the compound `OCCCC1NCCc2c1[nH]c1ccccc21` (stereo not given), the ED in [6] was 59.9 µM.
Turning to `CCCSc1ccc2c(c1)nc(NC(=O)OC)n2COC(C)=O`, the Activity in experiment [7] stood at 30%.
`CCCSc1ccc2[nH]c(NC(=O)OC)nc2c1` [ALBENDAZOLE]: the Activity in experiment [8] is given as 37.5%; in experiment [9] it was 66.1%; in [10] it was 70%; in experiment [11], 100%; in [12] it was 92.2%; in experiment [13], 54.2%.
`COc1ccc2c(c1OC)CN(C)CCc1cc3c(cc1C(=O)C2)OCO3` [ALLOCRYPTOPINE]: in experiment [14], the EC50 was found to be 349 µM.
Still for that read-out and setting: as for `COc1cc2c(cc1OC)-c1c(C)c3ccc(OC)c(OC)c3c[n+]1CC2` [DEHYDROCORYDALINE], the figure is 295 µM.
With `COC(=O)Nc1nc2cc(Sc3ccccc3)ccc2[nH]1` [FENBENDAZOLE], the Activity in experiment [10] is on record as 55.7%; in experiment [12] it was 44.7%; in experiment [15] it was 89.5%.
In the case of `COc1ccc(Cc2nccc3cc(OC)c(OC)cc23)cc1OC` [PAPAVERINE], in experiment [14], the EC50 worked out at 250 µM.
For the compound `Cc1ccc(C(C)C)c(O)c1` [THYMOL], the figures for the inhibition in vivo at 40 mg/kg in experiment [16] and in [17] were 58.5% and 66.7%, respectively.
